# The supplement of paper PMC10307832
# How the values were obtained:
# Test in all cases: relative viability (nuclei count vs DMSO), 5 days (fraction); higher = more cells survive
# NCI-H520 = test system: NCI-H520
# Outline: (§1)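 Each reported value is a median over duplicate plates. It expresses relative viability: treated-well nuclei count divided by vehicle-well nuclei count. Lung cancer cell lines in 1536-well plates were dosed by pin tool a day after seeding, alone with one drug or with a fixed anchor-drug dose plus five library-drug doses (not always all listed) in √10 steps, and nuclei were counted after 5 days.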
# NCI-H1975 = test system: NCI-H1975
# Outline: as §1
# NCI-H2347 = test system: NCI-H2347
# Outline: as §1
# EMC-BAC-2 = test system: EMC-BAC-2
# Outline: as §1
# SW 1573 = test system: SW 1573
# Outline: as §1
# ABC-1 = test system: ABC-1
# Outline: as §1
# NCI-H1355 = test system: NCI-H1355
# Outline: as §1
# NCI-H1793 = test system: NCI-H1793
# Outline: as §1
# PC-3 [JPC-3] = test system: PC-3 [JPC-3]
# Outline: as §1
# NCI-H460 = test system: NCI-H460
# Outline: as §1
# NCI-H2009 = test system: NCI-H2009
# Outline: as §1
# NCI-H2126 = test system: NCI-H2126
# Outline: as §1
# NCI-H1944 = test system: NCI-H1944
# Outline: as §1
# LCLC-97TM1 = test system: LCLC-97TM1
# Outline: as §1
# NCI-H1993 = test system: NCI-H1993
# Outline: as §1
# NCI-H441 = test system: NCI-H441
# Outline: as §1
# SK-LU-1 = test system: SK-LU-1
# Outline: as §1
# NCI-H1666 = test system: NCI-H1666
# Outline: as §1
# NCI-H727 = test system: NCI-H727
# Outline: as §1
# PC-14 = test system: PC-14
# Outline: as §1
# NCI-H1755 = test system: NCI-H1755
# Outline: as §1
# NCI-H2170 = test system: NCI-H2170
# Outline: as §1
# NCI-H647 = test system: NCI-H647
# Outline: as §1
smiles,measurement,setting,value
Cc1cnc(-c2cnc(NCCNc3ccc(C#N)cn3)nc2-c2ccc(Cl)cc2Cl)[nH]1 + COc1cc2c(Oc3ccc(NC(=O)C4(C(=O)Nc5ccc(F)cc5)CC4)cc3F)ccnc2cc1OCCCN1CCOCC1 [Foretinib] (partner 0.25 µM),relative viability,NCI-H520; first compound 0.08 µM,0.71
same,relative viability,NCI-H520; first compound 0.253 µM,0.593
same,relative viability,NCI-H520; first compound 0.8 µM,0.918
same,relative viability,NCI-H520; first compound 2.53 µM,1.04
same,relative viability,NCI-H1975; first compound 0.08 µM,0.928
same,relative viability,NCI-H1975; first compound 0.253 µM,0.911
same,relative viability,NCI-H1975; first compound 0.8 µM,0.771
same,relative viability,NCI-H1975; first compound 2.53 µM,0.573
same,relative viability,NCI-H2347; first compound 0.08 µM,0.963
same,relative viability,NCI-H2347; first compound 0.253 µM,1.11
same,relative viability,NCI-H2347; first compound 0.8 µM,0.877
same,relative viability,NCI-H2347; first compound 2.53 µM,0.841
same,relative viability,EMC-BAC-2; first compound 0.08 µM,1.1
same,relative viability,EMC-BAC-2; first compound 0.253 µM,0.964
same,relative viability,EMC-BAC-2; first compound 0.8 µM,1.02
same,relative viability,EMC-BAC-2; first compound 2.53 µM,0.939
same,relative viability,SW 1573; first compound 0.08 µM,0.929
same,relative viability,SW 1573; first compound 0.253 µM,0.87
same,relative viability,SW 1573; first compound 0.8 µM,0.907
same,relative viability,SW 1573; first compound 2.53 µM,0.769
same,relative viability,ABC-1; first compound 0.08 µM,1.32
same,relative viability,ABC-1; first compound 0.253 µM,1.31
same,relative viability,ABC-1; first compound 0.8 µM,1.34
same,relative viability,ABC-1; first compound 2.53 µM,1.2
same,relative viability,NCI-H1355; first compound 0.08 µM,0.901
same,relative viability,NCI-H1355; first compound 0.253 µM,0.867
same,relative viability,NCI-H1355; first compound 0.8 µM,0.97
same,relative viability,NCI-H1355; first compound 2.53 µM,0.96
same,relative viability,NCI-H1793; first compound 0.08 µM,0.807
same,relative viability,NCI-H1793; first compound 0.253 µM,0.545
same,relative viability,NCI-H1793; first compound 0.8 µM,0.684
same,relative viability,NCI-H1793; first compound 2.53 µM,0.723
same,relative viability,PC-3 [JPC-3]; first compound 0.08 µM,0.978
same,relative viability,PC-3 [JPC-3]; first compound 0.253 µM,0.926
same,relative viability,PC-3 [JPC-3]; first compound 0.8 µM,1.03
same,relative viability,PC-3 [JPC-3]; first compound 2.53 µM,1.03
same,relative viability,NCI-H460; first compound 0.08 µM,1.1
same,relative viability,NCI-H460; first compound 0.253 µM,0.947
same,relative viability,NCI-H460; first compound 0.8 µM,0.981
same,relative viability,NCI-H460; first compound 2.53 µM,0.885
same,relative viability,NCI-H2009; first compound 0.08 µM,1.27
same,relative viability,NCI-H2009; first compound 0.253 µM,1.21
same,relative viability,NCI-H2009; first compound 0.8 µM,1.35
same,relative viability,NCI-H2009; first compound 2.53 µM,1.03
same,relative viability,NCI-H2126; first compound 0.08 µM,1.33
same,relative viability,NCI-H2126; first compound 0.253 µM,1.22
same,relative viability,NCI-H2126; first compound 0.8 µM,1
same,relative viability,NCI-H2126; first compound 2.53 µM,1.08
same,relative viability,NCI-H1944; first compound 0.08 µM,0.885
same,relative viability,NCI-H1944; first compound 0.8 µM,0.902
same,relative viability,NCI-H1944; first compound 2.53 µM,0.91
same,relative viability,LCLC-97TM1; first compound 0.08 µM,0.917
same,relative viability,LCLC-97TM1; first compound 0.8 µM,0.878
same,relative viability,LCLC-97TM1; first compound 2.53 µM,0.86
same,relative viability,NCI-H1993; first compound 0.08 µM,0.902
same,relative viability,NCI-H1993; first compound 0.253 µM,0.652
same,relative viability,NCI-H1993; first compound 0.8 µM,0.754
same,relative viability,NCI-H1993; first compound 2.53 µM,0.889
same,relative viability,NCI-H441; first compound 0.08 µM,1.2
same,relative viability,NCI-H441; first compound 0.253 µM,0.926
same,relative viability,NCI-H441; first compound 0.8 µM,1.01
same,relative viability,NCI-H441; first compound 2.53 µM,0.958
same,relative viability,SK-LU-1; first compound 0.08 µM,0.865
same,relative viability,SK-LU-1; first compound 0.253 µM,0.833
same,relative viability,SK-LU-1; first compound 0.8 µM,0.983
same,relative viability,SK-LU-1; first compound 2.53 µM,1.03
same,relative viability,NCI-H1666; first compound 0.08 µM,0.934
same,relative viability,NCI-H1666; first compound 0.253 µM,0.906
same,relative viability,NCI-H1666; first compound 0.8 µM,0.995
same,relative viability,NCI-H1666; first compound 2.53 µM,0.924
same,relative viability,NCI-H727; first compound 0.08 µM,0.943
same,relative viability,NCI-H727; first compound 0.253 µM,0.918
same,relative viability,NCI-H727; first compound 0.8 µM,0.732
same,relative viability,NCI-H727; first compound 2.53 µM,0.898
same,relative viability,PC-14; first compound 0.08 µM,0.978
same,relative viability,PC-14; first compound 0.253 µM,0.852
same,relative viability,PC-14; first compound 0.8 µM,0.941
same,relative viability,PC-14; first compound 2.53 µM,0.894
same,relative viability,NCI-H1755; first compound 0.08 µM,0.936
same,relative viability,NCI-H1755; first compound 0.253 µM,0.808
same,relative viability,NCI-H1755; first compound 0.8 µM,0.982
same,relative viability,NCI-H1755; first compound 2.53 µM,0.972
same,relative viability,NCI-H2170; first compound 0.08 µM,0.953
same,relative viability,NCI-H2170; first compound 0.253 µM,0.906
same,relative viability,NCI-H2170; first compound 0.8 µM,0.965
same,relative viability,NCI-H2170; first compound 2.53 µM,0.997
same,relative viability,NCI-H647; first compound 0.08 µM,1.35
same,relative viability,NCI-H647; first compound 0.253 µM,1.03
same,relative viability,NCI-H647; first compound 0.8 µM,0.938
same,relative viability,NCI-H647; first compound 2.53 µM,1.15
